What was measured:
WRN [1] = molecular target: T1, WRN (Homo sapiens, UniProt Q14191); assay: WRN Helicase activity assay (fluorescence DNA unwinding); type: biochemical; conditions: 1-hr pre-incubation with enzyme; 100 μM ATP, 25 nM forked dsDNA, 1 nM WRN; geometric mean of at least 2 replicates
T1 construct: A His-tagged construct of WRN (AA S2-S1235) was produced and used for the ATPase assay; His; made in house; host or cells: Sf9 insect cells (baculovirus, pFastBac1)
Experimental: Compounds of the examples were tested for WRN helicase activity. DNA encoding the target protein, 6×HIS-TEV-WRN-517-945, was produced, cloned and transfected as detailed in Example D. To determine the inhibitory properties of the compounds, a 384 wells plate-based Helicase assay was set up to measure the extent of DNA unwinding (Helicase) activity of WRN. The WRN Helicase assay was designed to measure increase in fluorescence signal using a fluorescence based, donor-quencher paired forked dsDNA oligomer substrate (custom synthesis from Sigma-Aldrich) prepared by annealing equal amounts of oligo GPat-1 ([BHQ2][…]) and oligo GPat-2 ([…][TAM]). Continuous measurement of fluorescent signal was used to optimize the buffer conditions, concentration of enzyme (WRN), concentration of substrates (ATP & dsDNA), and the linearity of the Helicase reaction. All solutions were prepared in the following assay buffer: 50 mM Tris-HCl, pH-7.5, 2 mM MgCl2, 50 mM NaCl, 1 mM EGTA, 0.01% P-20, 0.05% BSA, and 2 mM DTT prepared with nuclease free water.
A serial dilution (1:3 scheme) of the compounds was prepared in neat DMSO and 100 nL of the compounds was dispensed in the Greiner black low volume (Greiner #784076) 384 wells assay plate. An 1-hr pre-incubation of the compounds with enzyme was included. A His-tagged construct of WRN (AA S2-S1235) was produced and used for the ATPase assay. Maximum inhibition control wells were set up with the addition of only assay buffer, and no inhibition control wells were set up with neat DMSO without test compounds. The reaction was initiated by addition of 5 μL substrate mix (200 μM ultrapure ATP, and 50 nM dsDNA prepared in assay buffer) and incubated at 25° C. for 35 min. A typical Helicase reaction consists of 25 nM forked dsDNA, 100 μM ATP, and 1 nM WRN prepared in assay buffer. The WRN Helicase reaction was quenched by the addition of 5 μL ‘STOP’ solution containing 100 mM EDTA (final EDTA concentration 33.33 mM) prepared in assay buffer. The plates were read on BMG PHERAstar FSX using 540/590 module to measure an increase of fluorescence. Data analysis was carried out using the Genedata software following % of control normalization. Fitting parameters include dose response IC50, Hill slope (n), maximum inhibition (S∞), and minimum inhibition (S0). The reported IC50 values for compounds in this invention are the geometric means of at least 2 independent replicates.

WRN [2] = molecular target: T1, WRN; assay: WRN ATPase activity assay (ADP-Glo); type: biochemical; conditions: 1-hr pre-incubation with enzyme; 100 μM ATP, 25 nM forked dsDNA, 1 nM WRN; geometric mean of at least 2 replicates
Experimental: Compounds of the Examples were tested for WRN ATPase activity. WRN ATPase activity catalyzes ATP hydrolysis to produce ADP and phosphate. DNA encoding the target protein, 6×HIS-TEV-WRN-517-945, was produced, cloned and transfected as detailed in Example D. The amount of ADP produced was measured using ADP-Glo™ Kinase Assay kit from Promega Corporation in a Greiner white regular volume 384 wells assay plate (Greiner #781075). Data was normalized to a standard curve generated using various ADP concentrations and the corresponding luminescent signal intensities at each concentration. The assay conditions were optimized for enzyme concentration (WRN), substrate concentrations (ATP & dsDNA), and the linearity of the ATPase reaction, in the following assay buffer: 50 mM Tris-HCl, pH-7.5, 2 mM MgCl2, 50 mM NaCl, 1 mM EGTA, 0.01% P-20, 0.05% BSA, and 2 mM DTT prepared with nuclease free water.
A serial dilution (1:3 scheme) of the compounds were prepared in neat DMSO, with 100 nL of the compounds dispensed in the 384 wells assay plate. An 1-hr pre-incubation of the compounds with enzyme was included. A His-tagged construct of WRN (AA S2-S1235) was produced and used for the ATPase assay. Maximum inhibition control wells were set up with the addition of only assay buffer, and no inhibition control wells were set up with neat DMSO without test compounds. The reaction was initiated by addition of 5 μL substrate mix (200 μM ultrapure ATP, and 50 nM dsDNA prepared in assay buffer) and incubated at 25° C. for 35 min. A forked dsDNA oligomer substrate was prepared by annealing equal amounts of oligo GPat-1 ([BHQ2][…]) and oligo GPat-2 ([…][TAM]) and was used as dsDNA substrate for WRN ATPase assay. A typical ATPase reaction consists of 25 nM forked dsDNA, 100 μM ATP, and 1 nM WRN prepared in assay buffer. The WRN ATPase reaction was stopped by the addition of 5 μL of ADP-Glo Reagent from ADP-Glo™ Kinase Assay kit and incubated for 40 min to deplete the unreacted ATP. Afterwards, 5 μL of Kinase Detection Reagent from the ADP-Glo™ Kinase Assay kit was added and incubated for 1 hr for the development of luminescence signal.
Luminesce signals were measured on BMG PHERAstar FSX using luminescence protocol. Data analysis was carried out using Genedata software following % of control normalization. Fitting parameters include dose response IC50, Hill slope (n), maximum inhibition (S∞), and minimum inhibition (S0). The reported IC50 values for compounds in this invention are the geometric means of at least 2 independent replicates.

T1 sequence (Q14191 2-1235): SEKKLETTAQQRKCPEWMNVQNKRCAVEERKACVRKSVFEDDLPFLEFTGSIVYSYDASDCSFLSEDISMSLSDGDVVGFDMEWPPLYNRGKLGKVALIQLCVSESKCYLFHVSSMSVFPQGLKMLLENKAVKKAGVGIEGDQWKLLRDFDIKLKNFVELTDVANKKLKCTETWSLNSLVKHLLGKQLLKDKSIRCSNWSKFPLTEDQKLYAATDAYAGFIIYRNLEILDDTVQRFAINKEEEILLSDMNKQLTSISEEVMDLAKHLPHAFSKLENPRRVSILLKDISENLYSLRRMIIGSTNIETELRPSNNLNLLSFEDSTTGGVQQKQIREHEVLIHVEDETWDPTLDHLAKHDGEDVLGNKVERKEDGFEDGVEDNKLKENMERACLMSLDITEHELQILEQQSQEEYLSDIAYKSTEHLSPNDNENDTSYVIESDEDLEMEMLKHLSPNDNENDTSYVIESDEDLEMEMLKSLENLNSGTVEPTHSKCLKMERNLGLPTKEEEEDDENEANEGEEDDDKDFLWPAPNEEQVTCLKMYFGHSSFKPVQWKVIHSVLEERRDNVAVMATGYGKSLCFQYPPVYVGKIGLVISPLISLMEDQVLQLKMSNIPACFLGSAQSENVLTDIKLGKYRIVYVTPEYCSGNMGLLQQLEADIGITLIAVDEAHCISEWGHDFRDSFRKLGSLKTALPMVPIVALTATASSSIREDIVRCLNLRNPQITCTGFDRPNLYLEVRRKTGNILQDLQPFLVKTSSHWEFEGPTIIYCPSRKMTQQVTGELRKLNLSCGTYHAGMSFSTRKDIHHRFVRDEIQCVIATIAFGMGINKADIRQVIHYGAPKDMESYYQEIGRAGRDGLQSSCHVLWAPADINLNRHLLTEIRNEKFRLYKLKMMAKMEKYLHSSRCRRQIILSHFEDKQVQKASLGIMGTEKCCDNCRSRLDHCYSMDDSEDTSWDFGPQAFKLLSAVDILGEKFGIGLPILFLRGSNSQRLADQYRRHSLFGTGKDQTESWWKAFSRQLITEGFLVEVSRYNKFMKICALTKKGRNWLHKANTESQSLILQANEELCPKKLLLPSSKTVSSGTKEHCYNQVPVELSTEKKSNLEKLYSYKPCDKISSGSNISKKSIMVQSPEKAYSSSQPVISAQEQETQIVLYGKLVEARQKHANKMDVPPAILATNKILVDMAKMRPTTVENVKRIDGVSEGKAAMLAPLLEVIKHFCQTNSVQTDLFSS

Row | IC50 (WRN [1]) [nM] | IC50 (WRN [2]) [nM] | Compound
1 | 100 to 500 | 100 to 500 | C=CC(=O)Nc1ccccc1-c1c(CC)nc2n(CC(=O)Nc3ccc(F)c(F)c3)c3cc(OC)ccc3n2c1=O [Example 17, N-(2-(10-(2-((3,4-Difluorophenyl)amino)-2-oxoethyl)-2-ethyl-8-methoxy-4-oxo-4,10-dihydrobenzo[4,5]imidazo[1,2-a]pyrimidin-3-yl)phenyl)acrylamide]
2 | 5000 to 20000 | 1000 to 5000 | C=CC(=O)Nc1ccccc1-c1c(CC)nc2n(CC(=O)Nc3ccc(F)cc3)c3cc(C)c(C)cc3n2c1=O [Example 18, N-(2-(2-Ethyl-10-(2-((4-fluorophenyl)amino)-2-oxoethyl)-7,8-dimethyl-4-oxo-4,10-dihydrobenzo[4,5]imidazo[1,2-a]pyrimidin-3-yl)phenyl)acrylamide]
3 | < 100 | < 100 | C=CC(=O)Nc1ccccc1-c1c(CC)nc2n(CC(=O)Nc3ccc(C(F)(F)F)cc3)c3c(OC)cccc3n2c1=O [Example 19, N-(2-(2-Ethyl-9-methoxy-4-oxo-10-(2-oxo-2-((4-(trifluoromethyl)phenyl)amino)ethyl)-4,10-dihydrobenzo[4,5]imidazo[1,2-a]pyrimidin-3-yl)phenyl)acrylamide]
4 | 100 to 500 | 100 to 500 | C=CC(=O)Nc1ccccc1-c1c(CC)nc2n(CC(=O)Nc3ccc(C(F)(F)F)cc3)c3ncccc3n2c1=O [Example 20, N-(2-(8-Ethyl-6-oxo-10-(2-oxo-2-((4-(trifluoromethyl)phenyl)amino)ethyl)-6,10-dihydropyrido[2′,3′: 4,5]imidazo[1,2-a]pyrimidin-7-yl)phenyl)acrylamide]
5 | < 100 | < 100 | C=CS(=O)(=O)Nc1ccccc1-c1c(CC)nc2n(CC(=O)Nc3ccc(C(F)(F)F)cc3)c3ccccc3n2c1=O [Example 21, 2-(2-Ethyl-4-oxo-3-(2-(vinylsulfonamido)phenyl)benzo[4,5]imidazo[1,2-a]pyrimidin-10(4H)-yl)-N-(4-(trifluoromethyl)phenyl)acetamide]
6 | < 100 | < 100 | C=CC(=O)Nc1ccccc1-c1c(CC)nc2n(CC(=O)Nc3ccc(C(F)(F)F)cc3)c3c(n2c1=O)CCCC3 [Example 22, N-(2-(2-ethyl-4-oxo-10-(2-oxo-2-((4-(trifluoromethyl)phenyl)amino)ethyl)-4,6,7,8,9,10-hexahydrobenzo[4,5]imidazo[1,2-a]pyrimidin-3-yl)phenyl)acrylamide]
7 | < 100 | < 100 | C=CS(=O)(=O)Nc1ccccc1-c1c(CC)nc2n(CC(=O)Nc3ccc(C(F)(F)F)cc3)c3c(n2c1=O)CCCC3 [Example 23, 2-(2-Ethyl-4-oxo-3-(2-(vinylsulfonamido)phenyl)-6,7,8,9-tetrahydrobenzo[4,5]imidazo[1,2-a]pyrimidin-10(4H)-yl)-N-(4-(trifluoromethyl)phenyl)acetamide]
8 | 100 to 500 | 100 to 500 | C=CS(=O)(=O)Nc1ccccc1-c1c(CC)c(C#N)c2n(CC(=O)Nc3ccc(C(F)(F)F)cc3)c3ccccc3n2c1=O [Example 24, 2-(4-Cyano-3-ethyl-1-oxo-2-(2-(vinylsulfonamido)phenyl)benzo[4,5]imidazo[1,2-a]pyridin-5(1H)-yl)-N-(4-(trifluoromethyl)phenyl)acetamide]
9 | 100 to 500 | 100 to 500 | C=CC(=O)Nc1ccccc1-c1c(CC)c(C#N)c2n(CC(=O)Nc3ccc(C(F)(F)F)cc3)c3ccccc3n2c1=O [Example 25, N-(2-(4-Cyano-3-ethyl-1-oxo-5-(2-oxo-2-((4-(trifluoromethyl)phenyl)amino)ethyl)-1,5-dihydrobenzo[4,5]imidazo[1,2-a]pyridin-2-yl)phenyl)acrylamide]
10 | < 100 | 100 to 500 | C=CC(=O)Nc1ccccc1-c1c(CC)cc2n(CC(=O)Nc3ccc(C(F)(F)F)cc3)c3ccccc3n2c1=O [Example 26, N-(2-(3-Ethyl-1-oxo-5-(2-oxo-2-((4-(trifluoromethyl)phenyl)amino)ethyl)-1,5-dihydrobenzo[4,5]imidazo[1,2-a]pyridin-2-yl)phenyl)acrylamide]
